Reference: patent US20230266302A1, “SYNTHESIS AND USE OF N-BENZYL SULFONAMIDES” (THE UNIVERSITY OF TULSA, priority 2020, published 2023)

Columns and labels:
Experiment in all cases: ATP level assay (CellTiter-Glo), percent of control
Assay type in all cases: cell-based
MCF7 (breast cancer) = settings: two hour incubation; for activity at 100 µM: Homo sapiens, MCF7, 2 h, compound alone, control DMSO, read-out: POC (percent of control) MCF7
Text: (§1) In the present method, the method of using the available assays has been modified to measure the short-term effect of compounds of interest on ATP levels in the cells. […] In the modified method, the control and test cells are initially treated with the metabolic inhibitor for a period of about thirty minutes to about four hours. Typically, the treatment of the cells with the metabolic inhibitor is for one hour prior to adding the compound to be screened for anti-cancer properties. However, simultaneous treatment with the metabolic inhibitor and the compound being screened should provide satisfactory results. […] ATP synthesis in cells occurs over multiple biochemical pathways. These pathways are very responsive to metabolic inhibitors and/or changes in available nutrients. By incorporating a metabolic inhibitor which is known to impact certain pathways, the disclosed method provides for measurement of a compound's direct effects on the remaining metabolic pathways available for ATP synthesis in the cell.
(§2) Following treatment of the control and test cells with the metabolic inhibitor, the method calls for addition of the compound to be screened for anti-cancer properties to the cells. Following addition of the compound of interest, the assay is allowed to continue for about one hour to about four hours or depending on the luminescing agent up to eighteen hours. However, approximately 60 minutes will be sufficient to determine the ATP inhibiting effect of the compound to be screened on the cells. Following completion of the selected time period, the ATP level within the cell is determined. ATP levels can be determined by luminescence according to standard measuring procedures, i.e. the luminescence level of the assay from the living cells treated with the two component composition is compared to the luminescence level of the assay from the living cells without the two component composition, i.e., the control experiment. Thus, the ATP levels are determined without killing the cells during the incubation of the cells in the presence of the compound of interest. As a result, the measured reduction in ATP level corresponds directly to the inhibition of the metabolic pathways uninhibited by the metabolic blocker.
(§3) A wide variety of ATP luminescing detection reagents are available commercially. So long as the reagent produces a luminescence in the presence of ATP, the reagent will be suitable for use in the present method. Suitable reagents include but are not limited to any ATP dependent luciferase such as but not limited to firefly luciferase, other modified luciferase based reagents, i.e. luciferase derivatives. According to the rapid method for determining the anti-cancer activity of a compound, a sample of living cells is distributed across a number of testing wells. Typically, 96-well plates are used; however, the number of wells is not critical to the current method. When using a 96-well plate the number of living cells will commonly be about 20,000. The sample wells contain a cell growth medium to promote cell health and growth and an additive to prevent bacterial contamination of the wells. One common example of the cell growth medium is DMEM with 10% FBS as described above. One example of the additive to prevent bacterial contamination is a solution of penicillin G and streptomycin referred to commonly as Pen-Strep. The Pen-Strep solution typically contains 5000 units of penicillin G and 5000 micrograms of streptomycin. Thus, the rapid determination of anti-cancer compounds can be carried out using the following method. • The desired number of cells are distributed in a 96-well plate containing 100 μL DMEM plus 10% FBS with optional Pen-Strep. • After 24 hours, cells are treated with the compound of interest or a 5% solution of dimethyl sulfoxide (DMSO) in water as a control. • The time period for exposure to the compound of interest and the DMSO control will vary depending on the luminescing detection reagent. […]

MDA-MB (breast cancer) = settings: two hour incubation; for activity at 100 µM: 2 h, compound alone, control DMSO, read-out: POC (percent of control) MDA-MB
Text: as §1, §2, §3

SkBr3 (breast cancer) = settings: two hour incubation; for activity at 100 µM: Homo sapiens, SK-BR-3, 2 h, compound alone, control DMSO, read-out: POC (percent of control) SkBr3
Text: as §1, §2, §3

H293 (kidney cancer) = settings: two hour incubation; for activity at 100 µM: 2 h, compound alone, control DMSO, read-out: POC (percent of control) H293
Text: as §1, §2, §3

NCI-H196 (lung cancer) = settings: two hour incubation; for activity at 100 µM: NCI-H196, 2 h, compound alone, control DMSO, read-out: POC (percent of control) NCI-H196
Text: as §1, §2, §3

[1] = test system: BxPC3 (pancreatic cancer); settings: two hour incubation; for activity at 100 µM: Homo sapiens, BXPC-3, 2 h, compound alone, control DMSO, read-out: POC (percent of control) BxPC3
Text: as §1, §2, §3

T47D (breast cancer) = settings: two hour incubation; for activity at 100 µM: Homo sapiens, T47D, 2 h, compound alone, control DMSO, read-out: POC (percent of control) T47D
Text: as §1, §2, §3

HDF (normal cells) = settings: two hour incubation; for activity at 100 µM: 2 h, compound alone, control DMSO, read-out: POC (percent of control) HDF
Text: as §1, §2, §3

PC3 (prostate cancer) = settings: two hour incubation; for activity at 100 µM: 2 h, compound alone, control DMSO, read-out: POC (percent of control) PC3
Text: as §1, §2, §3

HeLa (cervical cancer) = settings: two hour incubation; for activity at 100 µM: Homo sapiens, HeLa, 2 h, compound alone, control DMSO, read-out: POC (percent of control) HeLa
Text: as §1, §2, §3

[2] = test system: MCF10A (non-cancerous breast); settings: two hour incubation; for activity at 100 µM: Homo sapiens, MCF-10A, 2 h, compound alone, control DMSO, read-out: POC (percent of control) MCF10A
Text: as §1, §2, §3

[3] = compound 100 uM + 2DG (about 10-20 mM)
[4] = compound 100 uM + rotenone (approximately 1.25 μM)

Compound	activity at 100 µM (MCF7 (breast cancer)) [%]	POC (percent of control) MCF7 (MCF7 (breast cancer); [3])	POC (percent of control) MCF7 (MCF7 (breast cancer); [4])	activity at 100 µM (MDA-MB (breast cancer)) [%]	POC (percent of control) MDA-MB (MDA-MB (breast cancer); [3])	POC (percent of control) MDA-MB (MDA-MB (breast cancer); [4])	activity at 100 µM (SkBr3 (breast cancer)) [%]	POC (percent of control) SkBr3 (SkBr3 (breast cancer); [3])	POC (percent of control) SkBr3 (SkBr3 (breast cancer); [4])	activity at 100 µM (H293 (kidney cancer)) [%]	POC (percent of control) H293 (H293 (kidney cancer); [3])	POC (percent of control) H293 (H293 (kidney cancer); [4])	activity at 100 µM (NCI-H196 (lung cancer)) [%]	POC (percent of control) NCI-H196 (NCI-H196 (lung cancer); [3])	POC (percent of control) NCI-H196 (NCI-H196 (lung cancer); [4])	activity at 100 µM [1] [%]	POC (percent of control) BxPC3 [1, 4]	activity at 100 µM (T47D (breast cancer)) [%]	POC (percent of control) T47D (T47D (breast cancer); [3])	POC (percent of control) T47D (T47D (breast cancer); [4])	other results
Cc1ccc(S(=O)(=O)NCc2c[nH]c3ccccc23)cc1 [Compound 1, N-[(1H-indol-3-yl)methyl]-4-methylbenzenesulfonamide]	103	86.8% of control	79.6% of control	78.1	62% of control	80.5% of control	97.7	72.9% of control	91.2% of control	92.8	48.2% of control	69% of control	90.8	68.8% of control	83.2% of control	97.1	86.6% of control	53.2	43.2% of control	76.6% of control	activity at 100 µM (HDF (normal cells)): 98.5%; POC (percent of control) HDF (HDF (normal cells); [3]): 85% of control; POC (percent of control) HDF (HDF (normal cells); [4]): 107.7% of control; activity at 100 µM (PC3 (prostate cancer)): 91.7%; POC (percent of control) PC3 (PC3 (prostate cancer); [3]): 57.3% of control; POC (percent of control) PC3 (PC3 (prostate cancer); [4]): 72.6% of control; activity at 100 µM (HeLa (cervical cancer)): 95%; POC (percent of control) HeLa (HeLa (cervical cancer); [3]): 66.3% of control; POC (percent of control) HeLa (HeLa (cervical cancer); [4]): 78.7% of control; activity at 100 µM [2]: 73.3%; POC (percent of control) MCF10A [2, 3]: 86.7% of control; POC (percent of control) MCF10A [2, 4]: 69% of control
O=S(=O)(NCc1c[nH]c2ccccc12)c1ccccc1 [Compound 3, N-[(1H-indol-3-yl)methyl]benzenesulfonamide]	105	74.5% of control	97.3% of control	92.4	81.8% of control	102.7% of control	72.8	79.4% of control	97.1% of control	74.3	42.8% of control	69.3% of control	89.6	55% of control	89.2% of control	96.8	84.5% of control	34.9	37.1% of control	58.7% of control	activity at 100 µM (HDF (normal cells)): 84.5%; POC (percent of control) HDF (HDF (normal cells); [3]): 72.7% of control; POC (percent of control) HDF (HDF (normal cells); [4]): 91.9% of control; activity at 100 µM (PC3 (prostate cancer)): 85%; POC (percent of control) PC3 (PC3 (prostate cancer); [3]): 59.4% of control; POC (percent of control) PC3 (PC3 (prostate cancer); [4]): 65.1% of control; activity at 100 µM (HeLa (cervical cancer)): 99.2%; POC (percent of control) HeLa (HeLa (cervical cancer); [3]): 67.6% of control; POC (percent of control) HeLa (HeLa (cervical cancer); [4]): 85.5% of control; activity at 100 µM [2]: 62.5%; POC (percent of control) MCF10A [2, 3]: 72.7% of control; POC (percent of control) MCF10A [2, 4]: 110.5% of control
CC(=O)n1cc(CNS(=O)(=O)c2ccc(Cl)cc2)c2ccccc21 [Compound 4, N-[(1-acetyl-1H-indole-3-yl)methyl]-4-chlorobenzenesulfonamide]	108	82.2% of control	79.2% of control	94.7	63.6% of control	71.9% of control	79.1	87.5% of control	96.8% of control	88.6	60% of control	65.8% of control	72.5	49.6% of control	61.5% of control	88.4	71.1% of control	48.9	36.3% of control	45.8% of control	activity at 100 µM (HDF (normal cells)): 88.1%; POC (percent of control) HDF (HDF (normal cells); [3]): 66.8% of control; POC (percent of control) HDF (HDF (normal cells); [4]): 88.6% of control; activity at 100 µM (PC3 (prostate cancer)): 93.7%; POC (percent of control) PC3 (PC3 (prostate cancer); [3]): 61.9% of control; POC (percent of control) PC3 (PC3 (prostate cancer); [4]): 61.3% of control; activity at 100 µM (HeLa (cervical cancer)): 90.6%; POC (percent of control) HeLa (HeLa (cervical cancer); [3]): 67.4% of control; POC (percent of control) HeLa (HeLa (cervical cancer); [4]): 84.3% of control; activity at 100 µM [2]: 59.7%; POC (percent of control) MCF10A [2, 3]: 84.8% of control; POC (percent of control) MCF10A [2, 4]: 89.8% of control
Cc1cccc2[nH]cc(CNS(=O)(=O)c3ccccc3)c12 [Compound 7, N-[(4-methyl-1H-indol-3-yl)methyl]benzenesulfonamide]	107	91.6% of control	75.9% of control	85.6	81.2% of control	102.4% of control	108	76.2% of control	88.2% of control	93.2	60.9% of control	65.3% of control	84.9	70.1% of control	77.7% of control	86.3	79.1% of control	46.5	40.1% of control	66% of control	POC (percent of control) BxPC3 [1, 3]: 60.9% of control; activity at 100 µM (HDF (normal cells)): 87.7%; POC (percent of control) HDF (HDF (normal cells); [3]): 60.8% of control; POC (percent of control) HDF (HDF (normal cells); [4]): 77.9% of control; activity at 100 µM (PC3 (prostate cancer)): 95%; POC (percent of control) PC3 (PC3 (prostate cancer); [3]): 59.4% of control; POC (percent of control) PC3 (PC3 (prostate cancer); [4]): 82% of control; activity at 100 µM (HeLa (cervical cancer)): 91%; POC (percent of control) HeLa (HeLa (cervical cancer); [3]): 70.6% of control; POC (percent of control) HeLa (HeLa (cervical cancer); [4]): 79.5% of control; activity at 100 µM [2]: 66%; POC (percent of control) MCF10A [2, 3]: 64.5% of control; POC (percent of control) MCF10A [2, 4]: 97.9% of control
